# How the values were obtained:
# Type in all cases: in vivo
# Kochia (Kochia scoparia) [1] = assay: Test A preemergence; conditions: Bassia scoparia, pre-emergence, 240 h, Preemergence
# Outline: (§1)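 In a loam soil and sand blend, planted seeds got a preemergence directed soil spray, and young plants at the one- to two-leaf stage, 2–10 cm high, got a postemergence application; ~10 d greenhouse hold; injury rated visually, 0 = none, 100 = complete control.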
# [2] = tested on: barnyardgrass (Echinochloa crus-galli); assay: Test A preemergence; conditions: Echinochloa crus-galli, pre-emergence, 240 h, Preemergence
# Outline: as §1
# [3] = tested on: giant foxtail (Setaria faberii); assay: Test A preemergence; conditions: Setaria faberi, pre-emergence, 240 h, Preemergence
# Outline: as §1
# [4] = tested on: pigweed (Amaranthus retroflexus); assay: Test A preemergence; conditions: Amaranthus retroflexus, pre-emergence, 240 h, Preemergence
# [5] = tested on: ragweed (common ragweed, Ambrosia elatior); assay: Test A preemergence; conditions: Ambrosia artemisiifolia, pre-emergence, 240 h, Preemergence
# Outline: as §1
# [6] = tested on: ryegrass, Italian (Italian ryegrass, Lolium multiflorum); assay: Test A preemergence; conditions: Lolium multiflorum, pre-emergence, 240 h, Preemergence
# Outline: as §1
# [7] = tested on: Galium (catchweed bedstraw, Galium aparine); assay: Test A postemergence; conditions: Galium, post-emergence, 240 h, Postemergence, read-out: Galium plant response rating (0 to 100 scale)
# Outline: as §1
# Kochia (Kochia scoparia) [8] = assay: Test A postemergence; conditions: Bassia scoparia, post-emergence, 240 h, Postemergence, read-out: Kochia plant response rating (0 to 100 scale)
# Outline: as §1
# [9] = tested on: barnyardgrass (Echinochloa crus-galli); assay: Test A postemergence; conditions: Echinochloa crus-galli, post-emergence, 240 h, Postemergence
# Outline: as §1
# [10] = tested on: blackgrass (Alopecurus myosuroides); assay: Test A postemergence; conditions: Alopecurus myosuroides, post-emergence, 240 h, Postemergence, read-out: Blackgrass plant response rating (0 to 100 scale)
# Outline: as §1
# corn (Zea mays) = assay: Test A postemergence; conditions: Zea mays, post-emergence, 240 h, Postemergence, read-out: Corn plant response rating (0 to 100 scale)
# Outline: as §1
# [11] = tested on: giant foxtail (Setaria faberii); assay: Test A postemergence; conditions: Setaria faberi, post-emergence, 240 h, Postemergence, read-out: Foxtail, Giant plant response rating (0 to 100 scale)
# Outline: as §1
# [12] = tested on: pigweed (Amaranthus retroflexus); assay: Test A postemergence; conditions: Amaranthus retroflexus, post-emergence, 240 h, Postemergence, read-out: Pigweed plant response rating (0 to 100 scale)
# Outline: as §1
# [13] = tested on: ragweed (common ragweed, Ambrosia elatior); assay: Test A postemergence; conditions: Ambrosia artemisiifolia, post-emergence, 240 h, Postemergence, read-out: Ragweed plant response rating (0 to 100 scale)
# Outline: as §1
# [14] = tested on: ryegrass, Italian (Italian ryegrass, Lolium multiflorum); assay: Test A postemergence; conditions: Lolium multiflorum, post-emergence, 240 h, Postemergence, read-out: Ryegrass, Italian plant response rating (0 to 100 scale)
# Outline: as §1
# [15] = tested on: wheat (Triticum aestivum); assay: Test A postemergence; conditions: Triticum aestivum, post-emergence, 240 h, Postemergence, read-out: Wheat plant response rating (0 to 100 scale)
# Outline: as §1
# [16] = tested on: barnyardgrass (Echinochloa crus-galli); assay: Test B flooded paddy test; conditions: Echinochloa crus-galli, 360 h, Flood, 250 g ai/ha; visually evaluated after 13 to 15 d; read-out: Plant response rating, Barnyardgrass (0 to 100 scale where 0 is no effect and 100 is complete control)
# Outline: (§2)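 Plants at 2-leaf stage flooded to 3 cm above soil, with compounds applied directly to paddy water and that depth maintained. Plants kept in greenhouse 13–15 d. Visual rating versus controls on a 0 (no effect) to 100 (complete control) scale.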
# [17] = tested on: ducksalad (Heteranthera limosa); assay: Test B flooded paddy test; conditions: Heteranthera limosa, 360 h, Flood, 250 g ai/ha; visually evaluated after 13 to 15 d; read-out: Plant response rating, Ducksalad (0 to 100 scale where 0 is no effect and 100 is complete control)
# Outline: as §2
# rice (Oryra sativa) = assay: Test B flooded paddy test; conditions: Oryza sativa, 360 h, Flood, 250 g ai/ha; visually evaluated after 13 to 15 d; read-out: Plant response rating, Rice (0 to 100 scale where 0 is no effect and 100 is complete control)
# Outline: as §2
# [18] = tested on: sedge, umbrella (small-flower umbrella sedge, Cyperus difformis); assay: Test B flooded paddy test; conditions: Cyperus difformis, 360 h, Flood, 250 g ai/ha; visually evaluated after 13 to 15 d; read-out: Plant response rating, Sedge, Umbrella (0 to 100 scale where 0 is no effect and 100 is complete control)
# Outline: as §2
# [19] = 125 g ai/ha, visual rating about 10 d after treatment
# [20] = 31 g ai/ha, 0 is no effect, 100 is complete control
structure (smiles),measurement,setting,value
CN1C[C@H](c2cccc(C(F)(F)F)c2)[C@@H](C(=O)Nc2ccc(F)nc2F)C1=O [Compound 1348],pest or weed control at 31 g/ha,"Kochia (Kochia scoparia) [1]; 31 g ai/ha, 0 to 100 scale where 0 is no effect and 100 is complete control, read-out: Kochia plant response rating",0%
same,pest or weed control at 125 g/ha,"Kochia (Kochia scoparia) [1]; 125 g ai/ha, 0 to 100 scale (0 no effect, 100 complete control), read-out: Plant response rating, Kochia",80%
same,pest or weed control at 31 g/ha,"[2]; 31 g ai/ha, 0 to 100 scale where 0 is no effect and 100 is complete control, read-out: Barnyardgrass plant response rating",90%
same,pest or weed control at 125 g/ha,"[2]; 125 g ai/ha, 0 to 100 scale (0 no effect, 100 complete control), read-out: Plant response rating, Barnyardgrass",100%
same,pest or weed control at 31 g/ha,"[3]; 31 g ai/ha, 0 to 100 scale where 0 is no effect and 100 is complete control, read-out: Foxtail, Giant plant response rating",100%
same,pest or weed control at 125 g/ha,"[3]; 125 g ai/ha, 0 to 100 scale (0 no effect, 100 complete control), read-out: Plant response rating, Foxtail, Giant",100%
same,pest or weed control at 31 g/ha,"[4]; 31 g ai/ha, 0 to 100 scale where 0 is no effect and 100 is complete control, read-out: Pigweed plant response rating",0%
same,pest or weed control at 125 g/ha,"[4]; 125 g ai/ha, 0 to 100 scale (0 no effect, 100 complete control), read-out: Plant response rating, Pigweed",100%
same,pest or weed control at 31 g/ha,"[5]; 31 g ai/ha, 0 to 100 scale where 0 is no effect and 100 is complete control, read-out: Ragweed plant response rating",80%
same,pest or weed control at 125 g/ha,"[5]; 125 g ai/ha, 0 to 100 scale (0 no effect, 100 complete control), read-out: Plant response rating, Ragweed",20%
same,pest or weed control at 31 g/ha,"[6]; 31 g ai/ha, 0 to 100 scale where 0 is no effect and 100 is complete control, read-out: Ryegrass, Italian plant response rating",20%
same,pest or weed control at 125 g/ha,"[6]; 125 g ai/ha, 0 to 100 scale (0 no effect, 100 complete control), read-out: Plant response rating, Ryegrass, Italian",60%
same,pest or weed control at 125 g/ha,[7]; [19],70%
same,pest or weed control at 31 g/ha,[7]; [20],50%
same,pest or weed control at 125 g/ha,Kochia (Kochia scoparia) [8]; [19],50%
same,pest or weed control at 31 g/ha,Kochia (Kochia scoparia) [8]; [20],0%
same,pest or weed control at 125 g/ha,"[9]; 125 g ai/ha, visual rating about 10 d after treatment, read-out: Barnyardgrass plant response rating (0 to 100 scale, 0 no effect, 100 complete control)",90%
same,pest or weed control at 31 g/ha,"[9]; 31 g ai/ha, 0 is no effect, 100 is complete control, read-out: Barnyardgrass plant response rating (0 to 100 scale)",90%
same,pest or weed control at 125 g/ha,[10]; [19],50%
same,pest or weed control at 31 g/ha,[10]; [20],50%
same,plant injury at 125 g/ha,corn (Zea mays); [19],80%
same,plant injury at 31 g/ha,corn (Zea mays); [20],50%
same,pest or weed control at 125 g/ha,[11]; [19],90%
same,pest or weed control at 31 g/ha,[11]; [20],90%
same,pest or weed control at 125 g/ha,[12]; [19],0%
same,pest or weed control at 31 g/ha,[12]; [20],0%
same,pest or weed control at 125 g/ha,[13]; [19],20%
same,pest or weed control at 31 g/ha,[13]; [20],0%
same,pest or weed control at 125 g/ha,[14]; [19],30%
same,pest or weed control at 31 g/ha,[14]; [20],20%
same,plant injury at 125 g/ha,[15]; [19],60%
same,plant injury at 31 g/ha,[15]; [20],40%
same,pest or weed control at 250 g/ha,[16],90%
same,pest or weed control at 250 g/ha,[17],98%
same,pest or weed control at 250 g/ha,rice (Oryra sativa),0%
same,pest or weed control at 250 g/ha,[18],0%
